Reference: patent US12077503B2, “Substituted cyclic amides and their use as herbicides” (FMC CORPORATION, priority 2015, dated 2024)

How the values were obtained:
Type in all cases: in vivo
[1] = tested on: ducksalad (Heteranthera limosa); assay: Test B flooded paddy test; conditions: Heteranthera limosa, Flood, 250 g ai/ha; scale of 0 to 100 where 0 is no effect and 100 is complete control; read-out: Ducksalad plant response rating
Summary of the method: (§1)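 Compound goes directly into floodwater once pots are flooded 3 cm above soil, targeting plants at two leaves; the water depth is then held for the test duration. Plants sit 13–15 d in a greenhouse and are rated visually, 100 denoting complete control.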

[2] = tested on: sedge, umbrella (small-flower umbrella sedge, Cyperus difformis); assay: Test B flooded paddy test; conditions: Cyperus difformis, Flood, 250 g ai/ha; scale of 0 to 100 where 0 is no effect and 100 is complete control; read-out: Sedge, Umbrella plant response rating
Summary of the method: as §1

[3] = tested on: barnyardgrass (Echinochloa crus-galli); assay: Test B flooded paddy test; conditions: Echinochloa crus-galli, Flood, 250 g ai/ha; scale of 0 to 100 where 0 is no effect and 100 is complete control; read-out: Barnyardgrass plant response rating
Summary of the method: as §1

[4] = tested on: rice (Oryra sativa); assay: Test B flooded paddy test; conditions: Oryza sativa, Flood, 250 g ai/ha; scale of 0 to 100 where 0 is no effect and 100 is complete control; read-out: Rice plant response rating
Summary of the method: as §1

[5] = tested on: Kochia (Kochia scoparia); assay: Test A postemergence; conditions: Bassia scoparia, post-emergence, 240 h, 125 g ai/ha, Postemergence; visual injury after approximately 10 d; 0 to 100 scale where 0 is no effect and 100 is complete control; read-out: Plant response rating, Kochia
Summary of the method: (§2)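 Preemergence soil spray on seeded pots or post-emergence spray on 1–2 leaf plants, in loam–sand blend. Greenhouse ~10 d. Visual rating 0–100 against untreated plants.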

[6] = tested on: corn (Zea mays); assay: Test A postemergence; conditions: Zea mays, post-emergence, 240 h, 125 g ai/ha, Postemergence; visual injury after approximately 10 d; 0 to 100 scale where 0 is no effect and 100 is complete control
Summary of the method: as §2

[7] = tested on: pigweed (Amaranthus retroflexus); assay: Test A postemergence; conditions: Amaranthus retroflexus, post-emergence, 240 h, 125 g ai/ha, Postemergence; visual injury after approximately 10 d; 0 to 100 scale where 0 is no effect and 100 is complete control; read-out: Plant response rating, Pigweed
Summary of the method: as §2

[8] = tested on: Galium (catchweed bedstraw, Galium aparine); assay: Test A postemergence; conditions: Galium, post-emergence, 240 h, 125 g ai/ha, Postemergence; visual injury after approximately 10 d; 0 to 100 scale where 0 is no effect and 100 is complete control; read-out: Plant response rating, Galium
Summary of the method: as §2

[9] = tested on: wheat (Triticum aestivum); assay: Test A postemergence; conditions: Triticum aestivum, post-emergence, 240 h, 125 g ai/ha, Postemergence; visual injury after approximately 10 d; 0 to 100 scale where 0 is no effect and 100 is complete control; read-out: Plant response rating, Wheat
Summary of the method: as §2

[10] = tested on: blackgrass (Alopecurus myosuroides); assay: Test A postemergence; conditions: Alopecurus myosuroides, post-emergence, 240 h, 125 g ai/ha, Postemergence; visual injury after approximately 10 d; 0 to 100 scale where 0 is no effect and 100 is complete control; read-out: Plant response rating, Blackgrass
Summary of the method: as §2

[11] = tested on: ragweed (common ragweed, Ambrosia elatior); assay: Test A postemergence; conditions: Ambrosia artemisiifolia, post-emergence, 240 h, 125 g ai/ha, Postemergence; visual injury after approximately 10 d; 0 to 100 scale where 0 is no effect and 100 is complete control; read-out: Plant response rating, Ragweed
Summary of the method: as §2

[12] = tested on: barnyardgrass (Echinochloa crus-galli); assay: Test A postemergence; conditions: Echinochloa crus-galli, post-emergence, 240 h, 125 g ai/ha, Postemergence; visual injury after approximately 10 d; 0 to 100 scale where 0 is no effect and 100 is complete control; read-out: Plant response rating, Barnyardgrass
Summary of the method: as §2

[13] = tested on: ryegrass, Italian (Italian ryegrass, Lolium multiflorum); assay: Test A postemergence; conditions: Lolium multiflorum, post-emergence, 240 h, 125 g ai/ha, Postemergence; visual injury after approximately 10 d; 0 to 100 scale where 0 is no effect and 100 is complete control; read-out: Plant response rating, Ryegrass, Italian
Summary of the method: as §2

[14] = tested on: giant foxtail (Setaria faberii); assay: Test A postemergence; conditions: Setaria faberi, post-emergence, 240 h, 125 g ai/ha, Postemergence; visual injury after approximately 10 d; 0 to 100 scale where 0 is no effect and 100 is complete control; read-out: Plant response rating, Foxtail, Giant
Summary of the method: as §2

[15] = tested on: Kochia (Kochia scoparia); assay: Test A preemergence; conditions: Bassia scoparia, pre-emergence, 240 h
Summary of the method: as §2

[16] = tested on: pigweed (Amaranthus retroflexus); assay: Test A preemergence; conditions: Amaranthus retroflexus, pre-emergence, 240 h
[17] = tested on: ragweed (common ragweed, Ambrosia elatior); assay: Test A preemergence; conditions: Ambrosia artemisiifolia, pre-emergence, 240 h
Summary of the method: as §2

[18] = tested on: barnyardgrass (Echinochloa crus-galli); assay: Test A preemergence; conditions: Echinochloa crus-galli, pre-emergence, 240 h
Summary of the method: as §2

[19] = tested on: ryegrass, Italian (Italian ryegrass, Lolium multiflorum); assay: Test A preemergence; conditions: Lolium multiflorum, pre-emergence, 240 h
Summary of the method: as §2

[20] = tested on: giant foxtail (Setaria faberii); assay: Test A preemergence; conditions: Setaria faberi, pre-emergence, 240 h
Summary of the method: as §2

O=C1NC[C@H](c2csc(C(F)(F)F)c2)[C@H]1C(=O)Nc1cccc(F)c1F [Compound 957]
80%: pest or weed control at 125 g/ha [12] | pest or weed control at 500 g/ha ([15]; 500 g ai/ha, preemergence, visual injury rating about 10 d after treatment, 0 to 100 scale (0 no effect, 100 complete control), read-out: Kochia plant response rating)
70%: pest or weed control at 125 g/ha ([18]; 125 g ai/ha, Preemergence, visual injury rating after approximately 10 d, read-out: Barnyardgrass plant response rating (0 to 100 scale, 0 is no effect, 100 is complete control)) | pest or weed control at 500 g/ha ([20]; 500 g ai/ha, preemergence, visual injury rating about 10 d after treatment, 0 to 100 scale (0 no effect, 100 complete control), read-out: Foxtail, Giant plant response rating)
30%: pest or weed control at 250 g/ha [3] | pest or weed control at 125 g/ha ([15]; 125 g ai/ha, Preemergence, visual injury rating after approximately 10 d, read-out: Kochia plant response rating (0 to 100 scale, 0 is no effect, 100 is complete control)) | pest or weed control at 500 g/ha ([17]; 500 g ai/ha, preemergence, visual injury rating about 10 d after treatment, 0 to 100 scale (0 no effect, 100 complete control), read-out: Ragweed plant response rating)
0%: pest or weed control at 250 g/ha [2] | pest or weed control at 250 g/ha [4] | Corn plant response rating (crop injury, 0 = no effect, 100 = complete kill) at 125 g/ha [6] | pest or weed control at 125 g/ha [7] | plant injury at 125 g/ha [9] | pest or weed control at 125 g/ha [11] | pest or weed control at 125 g/ha [14] | pest or weed control at 125 g/ha ([17]; 125 g ai/ha, Preemergence, visual injury rating after approximately 10 d, read-out: Ragweed plant response rating (0 to 100 scale, 0 is no effect, 100 is complete control)) | pest or weed control at 125 g/ha ([19]; 125 g ai/ha, Preemergence, visual injury rating after approximately 10 d, read-out: Ryegrass, Italian plant response rating (0 to 100 scale, 0 is no effect, 100 is complete control))
40%: pest or weed control at 125 g/ha [8] | pest or weed control at 500 g/ha ([19]; 500 g ai/ha, preemergence, visual injury rating about 10 d after treatment, 0 to 100 scale (0 no effect, 100 complete control), read-out: Ryegrass, Italian plant response rating)
100%: pest or weed control at 250 g/ha [1] | pest or weed control at 500 g/ha ([18]; 500 g ai/ha, preemergence, visual injury rating about 10 d after treatment, 0 to 100 scale (0 no effect, 100 complete control), read-out: Barnyardgrass plant response rating)
20%: pest or weed control at 125 g/ha [5] | pest or weed control at 125 g/ha [10] | pest or weed control at 125 g/ha [13] | pest or weed control at 125 g/ha ([16]; 125 g ai/ha, Preemergence, visual injury rating after approximately 10 d, read-out: Pigweed plant response rating (0 to 100 scale, 0 is no effect, 100 is complete control)) | pest or weed control at 500 g/ha ([16]; 500 g ai/ha, preemergence, visual injury rating about 10 d after treatment, 0 to 100 scale (0 no effect, 100 complete control), read-out: Pigweed plant response rating) | pest or weed control at 125 g/ha ([20]; 125 g ai/ha, Preemergence, visual injury rating after approximately 10 d, read-out: Foxtail, Giant plant response rating (0 to 100 scale, 0 is no effect, 100 is complete control))
